Reference: paper PMC7466159, “Anti-Metastasis Fascin Inhibitors Decrease the Growth of Specific Subtypes of Cancers” (Cancers, 2020)
Where two headings read alike, the source gives them in different places.

Tests used:
[1] = test system: 4T1 mouse triple-negative breast cancer cells; conditions: for inhibition of lung metastasis / IC50, metastasized 4T1 cells in the lungs: BALB/c mice, oral; for IC50, metastasized 4T1 cells in the lungs: Day 7 to Day 27
Procedure: In the second orthotopic spontaneous tumor metastasis mouse model, 4T1 mouse triple-negative breast cancer cells were injected into the mammary gland of BALB/c mice, and then the metastasis to the lung was monitored (Figure 2D,E). The 4T1 mouse tumor closely mimics human breast cancer in its anatomical site, immunogenicity, growth characteristics, and metastatic properties. From the mammary gland, the 4T1 tumor spontaneously metastasizes to a variety of target organs including lung, bone, brain, and liver. Seven days after the implantation of 4T1 tumor cells, we orally administered the mice with different concentrations of NP-G2-044 either once a day or twice a day for six days a week. After 28 days, the mice were sacrificed and examined for metastasis in the lungs.
Female BALB/c mice (6- to 8-week old) were purchased from Charles River Labs. The 4T1 tumor cells (1 × 10^5) were injected subcutaneously into the abdominal mammary gland area of mice using 0.1 mL of a single-cell suspension in PBS-matrigel (v/v, 1:1) on Day 0 as previously described. […] On Day 28, the mice were sacrificed. […] The numbers of metastatic 4T1 cells in lungs were determined by a clonogenic assay. In brief, the lungs were removed from each mouse, finely minced and digested in 5 mL of an enzyme cocktail containing 1 × PBS and 1 mg/mL collagenase type IV for 2 h at 37 ℃ on a platform rocker. After incubation, samples were filtered through 70-µm nylon cell strainers and washed twice with PBS. The resulting cells were suspended and plated with a series of dilutions in 10-cm tissue culture dishes in DMEM medium containing 60 µM thioguanine for clonogenic growth. As 4T1 tumor cells are resistant to 6-thioguanine, the metastasized tumor cells formed foci after 14 days, at which time they were fixed with 4% paraformaldehyde and stained with crystal violet staining solution for counting. For the experiments in Figure 2F,G, 4T1 tumor cells (1 × 10^5) suspended in PBS-matrigel (v/v, 1:1) were injected subcutaneously into the abdominal mammary gland area of mice on day 0. Starting on Day 3, NP-G2-044 was given to mice once every day by oral gavage at 100 mg kg^−1 per mouse. A vehicle solvent was given to the control group of mice once every day by gavage. Starting on Day 7, paclitaxel was given to mice twice a week by an intraperitoneal injection at 20 mg kg^−1 per mouse for two weeks. Primary tumors were removed on Day 14. All mice were killed for a clonogenic assay on Day 32.

[2] = test system: MDA-MB-231 human triple-negative breast cancer cells; experiment: Overall survival of MDA-MB-231 tumor-bearing mice; assay type: in vivo
Procedure: The numbers of metastatic MDA-MB-231 cells in lungs were determined by a clonogenic assay. The lungs were removed from each mouse once sacrificed, and the resulting cells were suspended and plated with a series of dilutions in 10-cm tissue culture dishes in medium containing 2.0 µg/mL puromycin for clonogenic growth. As these MBA-MB-231 tumor cells were stably transfected with the vector pSuper-puro, the metastasized tumor cells formed foci after 14 days, at which time they were fixed with 4% paraformaldehyde and stained with crystal violet staining solution for counting. For combination treatments with chemotherapy, MDA-MB-231 tumor cells (1 × 10^5) suspended in PBS-matrigel (v/v, 1:1) were injected subcutaneously into the abdominal mammary gland area of mice on Day 0. Starting on Day 0, 7, or 14, NP-G2-044 was given to mice once a day for 6 days every week by oral gavage at 300 mg/kg per mouse. A vehicle solvent was given to the control mice once a day for 6 days every week. Starting on day 14, doxorubicin hydrochloride (MilliporeSigma, St. Louis, MO, USA) (2 mg/kg) and cyclophosphamide monohydrate (MilliporeSigma) (60 mg/kg) were given to mice once a week for four weeks. Primary tumors were removed on day 28. The death of the mice was used as the endpoint.

[3] = test system: NCI-H660 human neuroendocrine prostate cancer cells; experiment: Boyden chamber cell migration assay; assay type: cell-based; conditions: about twenty hours, 10% serum, read-out: IC50, tumor cell migration
From the text: Cells were stained with crystal violet staining solution, and cells on the upper side of the insert were removed with a cotton swab.

U2932 cells = experiment: Soft-agar colony formation assay, U2932; assay type: cell-based; conditions: 14 days, dosage-dependent
Procedure: A total of 1 × or 2 ×10^4 cells were suspended in 0.5 mL of 0.3% low melting point agar (Merck KGaA, Darmstadt, Germany) in RPMI-1640 or DMEM containing 10% FBS and control solvent or the inhibitors. This suspension was overlaid on pre-solidified with 0.6% agar in the same medium in 24-well plates as previously described. Normal growth medium containing control solvent or the inhibitors was gently layered over the cultures every 4 days for 14 days. The colonies were stained with 0.1% crystal violet for 1 h at room temperature and counted under a microscope.

[4] = test system: NF-κB nuclear translocation in HT cells; experiment: p65 (NF-κB) nuclear translocation, Western blotting, HT; assay type: cell-based; conditions: 30 µM, 16 h
[5] = test system: phosphorylation of ERK, PLCγ1, and PI3K in HCC38 cells; experiment: EGFR signaling pathway Western blotting, HCC38; assay type: cell-based; conditions: 10 ng/mL EGF, 30 µM, 24 h
Procedure: (§1) MDA-MB-468 cells and HCC38 cells grew in the presence of EGF with or without NP-G2-044. […] Finally, we used the animal model to investigate whether the primary tumor growth of MDA-MB-468 cells was sensitive to fascin inhibitors. MDA-MB-468 tumor cells were implanted into the mammary gland of NSG mice, and these mice were randomly divided into four groups. One group of mice was used as control (Figure 6I). The second group of mice was treated with the fascin inhibitor NP-G2-044 (Figure 6I). The third group was treated with the EGFR inhibitor gefitnib (Figure 6I), and the fourth group was treated with the combination of NP-G2-044 + gefitinib (Figure 6I). […] We dissected the primary tumor tissues 55 days after the tumor implantation from some mice. […] Furthermore, the overall survival of the mice was analyzed (Figure 6K).
For the cell signal pathway analysis of breast cancer cells, HCC38 and MDA-MB-468 cells were plated in a 10-cm dish. After culture for 24 h, cells were incubated in serum-free medium for 16 h.

MDA-MB-468 tumor cells = experiment: MDA-MB-468 breast cancer model in NSG mice (tumor growth, overall survival); assay type: in vivo; conditions: treatment from Day 14, compared with the control group
Procedure: as §1
For the breast cancer model, MDA-MB-468 cells (5 × 10^6) suspended in PBS-matrigel (v/v, 1:1) were injected subcutaneously into the abdominal mammary gland area of female NSG mice on Day 0 as previously described. Starting on Day 14, NP-G2-044 was given once a day for 5 days every week by gavage at 300 mg kg^−1 per mouse until their death. Starting on Day 14, gefitinib was given twice weekly by gavage at 150 mg kg^−1 per mouse until their death. The control solvent was given once a day for 5 days every week by gavage according to their body weight until their death. […] The primary tumor volume was calculated as length × width^2 ×π/6.

Ly10 cells = experiment: Cell growth assay, Ly10; conditions: Ly10 cells in culture, 4 days
Procedure: We then extended our search to other types of lymphoma cells. […] Both U2932 and Ly10 cells are ABC-subtype DLBCLs, and HT cells are diffuse mixed lymphoma.
For NP-G2-044 dose-dependent studies, 1 × 10^5 Ly10, U2932, or HT cells were seeded in a 12- or 24-well plate on day 0. A total of 1, 3, 10, 30, or 100 μM NP-G2-044 or control solvent was added to the plates. Cells were collected and counted on day 4. For time-dependent studies, 1 × 10^5 Ly10, U2932, or HT cells were seeded in a 12- or 24-well plate on day 0. A total of 30 μM NP-G2-044, 5 μM LY2409881, 30 μM NP-G2-044 plus 5 μM LY2409881, or control solvent was added to the plates. Cells were collected and counted on Days 2 and 4. […] The cell growth index was expressed as the fold changes of cell numbers over the starting cell number. For these assays, the old medium was changed with a fresh medium containing the control solvent or the inhibitors every two days.

## Cc1occc1C(=O)Nc1nn(Cc2ccc(C(F)(F)F)cc2)c2ccccc12 [NP-G2-044]
[1]; 30 mg/kg twice a day
  inhibition of lung metastasis: almost complete inhibition
[1]; 300 mg/kg once a day
  inhibition of lung metastasis: almost complete inhibition
[1]; once a day
  IC50, metastasized 4T1 cells in the lungs: 40 mg/kg
[1]; twice a day
  IC50, metastasized 4T1 cells in the lungs: 5 mg/kg
[1]; mouse, in vivo
  tolerability of dosage regimen: well tolerated with no signs of overt toxicity
[2]; NSG mice, compared with the control group, primary tumors removed on day 28
  increase of median overall survival: ~ 29%
[2]; combination with chemotherapy, NP-G2-044 starting on Day 0 and Day 7 versus Day 14
  overall survival by start of treatment: longer overall survival
[3]
  IC50: 3 to 5 µM
U2932 cells
  number of growing colonies: decreased the number of growing colonies
[4]
  nuclear translocation of the p65 subunits: also observed
[5]
  phosphorylation of ERK, PLCγ1, and PI3K: affected
MDA-MB-468 tumor cells
  growth of primary tumors: reduced the growth of primary tumors to the same degree
  increase of median overall survival: ~ 50%
Ly10 cells
  effect on cell growth: inhibitory effect
